From ChEMBL document CHEMBL5260850, “The exploration of aza-quinolines as hematopoietic prostaglandin D synthase (H-PGDS) inhibitors with low brain exposure” (Bioorg Med Chem, 2020)
pIC50, pKd: −log10 of the molar value. Active and inactive are the calls of the source. The rule behind the calls is not given here.

Experiments:
[1] = Terminal half life in mouse at 1 mg/kg, iv; format: ADME, organism-based; details: in vivo, read-out: beta t1/2 (converted)
[2] = Volume of distribution at steady state in mouse at 1 mg/kg, iv; format: ADME, organism-based; details: in vivo, read-out: Vdss
[3] = Terminal half life in rat at 0.4 mg/kg, iv; format: ADME, organism-based; details: in vivo, read-out: beta t1/2 (converted)
[4] = Oral bioavailability in rat at 2.4 mg/kg; format: ADME, organism-based; details: in vivo
[5] = Oral bioavailability in dog at 1 mg/kg; format: ADME, organism-based, Canis lupus familiaris; details: in vivo
[6] = target: Hematopoietic prostaglandin D synthase (Homo sapiens, UniProt O60760); assay: Binding affinity to human H-PGDS expressed in Escherichia coli BL21 DE3 cells assessed as equilibrium dissociation constant by measuring changes in intrinsic tryptophan fluorescence in presence of glutathione by fluorescence based analysis
[7] = target: Prostaglandin-H2 D-isomerase (Homo sapiens, UniProt P41222); assay: Inhibition of L-PGDS (unknown origin)
[8] = target: Potassium voltage-gated channel subfamily KQT member 1 (Homo sapiens, UniProt P51787); assay: Inhibition of Kv7.1 channel (unknown origin) upto 10000 nM; details: 10 µM
[9] = target: Amine oxidase [flavin-containing] A (Homo sapiens, UniProt P21397); assay: Inhibition of MAO-A (unknown origin) upto 10000 nM; details: 10 µM
[10] = target: Nuclear receptor subfamily 1 group I member 2 (Homo sapiens, UniProt O75469); assay: Inhibition of PXR (unknown origin) upto 10000 nM; details: 10 µM
[11] = Cmax in eccentric contraction-induced muscle injury C57BL/6N mouse model administered orally for 10 mins prior to unilateral eccentric contraction and QD for 16 days thereafter; format: ADME; set-up: time 16 day, route po; details: in vivo, po
[12] = Free AUC (0 to last) in eccentric contraction-induced muscle injury C57BL/6N mouse model administered orally for 10 mins prior to unilateral eccentric contraction and QD for 16 days thereafter; format: ADME; details: in vivo, po, 384 h, time 16 day
Mus musculus [13] = assay: Anti-inflammatory activity against mdx mouse assessed as inhibition of muscle function loss by measuring functional recovery of injured limb muscles at 0.1 to 10 mg/kg, po administered 10 mins prior to unilateral eccentric contraction and QD for 43 days thereafter; set-up: scale not given: the % may be the effect or the level left; details: dose 0.1-10 mg/kg, time 43 day
Mus musculus [14] = assay: Anti-inflammatory activity against mdx mouse assessed as inhibition of muscle function loss by measuring functional recovery of injured limb muscles administered orally 10 mins prior to unilateral eccentric contraction and QD for 43 days thereafter; details: 1032 h, route po, time 43 day
[15] = Cmax in mdx mouse administered orally 10 mins prior to unilateral eccentric contraction and QD for 43 days thereafter; format: ADME; set-up: time 43 day, route po; details: in vivo, po
[16] = Free AUC (0 to last) in mdx mouse administered orally 10 mins prior to unilateral eccentric contraction and QD for 43 days thereafter; format: ADME; details: in vivo, po, 1032 h, time 43 day
[17] = Genotoxicity in Salmonella typhimurium in presence of metabolic activation by Ames test; format: toxicity; details: salmonella enterica subsp. enterica serovar typhimurium
[18] = Genotoxicity in Salmonella typhimurium in absence of metabolic activation by Ames test; format: toxicity; details: salmonella enterica subsp. enterica serovar typhimurium
[19] = Toxicity in Wistar Han rat assessed as morphological changes in kidney at 30 mg/kg/day, po administered QD for 7 days by microscopic analysis; format: organism-based; details: in vivo, 168 h, time 7 day
[20] = Toxicity in Wistar Han rat assessed as necrosis and inflammatory cell infiltrates in heart at 100 mg/kg/day, po administered QD for 7 days by microscopic analysis; format: organism-based; details: in vivo, 168 h, time 7 day
[21] = Toxicity in Wistar Han rat assessed as cortical hypertrophy in adrenal gland at 100 mg/kg/day, po administered QD for 7 days by microscopic analysis; format: organism-based; details: in vivo, 168 h, time 7 day
[22] = Toxicity in Wistar Han rat assessed as increased lymphocytolysis in thymus at 100 mg/kg/day, po administered QD for 7 days by microscopic analysis; format: organism-based; details: in vivo, 168 h, time 7 day
[23] = AUC in Wistar Han rat at 10 mg/kg/day, po QD for 7 days; format: ADME, organism-based; set-up: dose 10 mg/kg/day, time 7 day, route po; details: in vivo
[24] = AUC in Wistar Han rat at 30 mg/kg/day, po QD for 7 days; format: ADME, organism-based; set-up: dose 30 mg/kg/day, time 7 day, route po; details: in vivo
[25] = Toxicity in dog assessed as decrease in body temperature at 75 mg/kg/day, po QD for 4 days; format: organism-based, Canis lupus familiaris; details: in vivo, 96 h, time 4 day
[26] = Toxicity in dog assessed as diffuse degenration/regeneration and multifocal erosion/ulcreation in small intestine and oesophagus at 75 mg/kg/day, po QD for 4 days by microscopic analysis; format: organism-based, Canis lupus familiaris; details: in vivo, 96 h, time 4 day
[27] = Toxicity in dog assessed as cytoplasmic alteration in zona fasciculata in adrenal gland at 75 mg/kg/day, po QD for 4 days by microscopic analysis; format: organism-based, Canis lupus familiaris; details: in vivo, 96 h, time 4 day
[28] = AUC in dog at 30 mg/kg/day, po QD for 4 days; format: ADME, organism-based, Canis lupus familiaris; set-up: dose 30 mg/kg/day, time 4 day, route po; details: in vivo
[29] = Cmax in dog at 30 mg/kg/day, po QD for 4 days; format: ADME, organism-based, Canis lupus familiaris; set-up: time 4 day, dose 30 mg/kg/day, route po; details: in vivo
[30] = target: Mu-type opioid receptor (Homo sapiens) (UniProt P35372); details: dose <= 10000.0 nM
Description: Inhibition of mu opioid receptor (unknown origin) upto 10000 nM

[31] = target: D(2) dopamine receptor (Homo sapiens) (UniProt P14416); details: dose <= 10000.0 nM
Description: Inhibition of dopamine D2 receptor (unknown origin) upto 10000 nM

[32] = target: Histamine H1 receptor (Homo sapiens) (UniProt P35367); details: dose <= 10000.0 nM
Description: Inhibition of histamine H1 receptor (unknown origin) upto 10000 nM

[33] = target: Muscarinic acetylcholine receptor M1 (Homo sapiens) (UniProt P11229); details: dose <= 10000.0 nM
Description: Inhibition of muscarinic M1 receptor (unknown origin) upto 10000 nM

[34] = target: Muscarinic acetylcholine receptor M2 (Homo sapiens) (UniProt P08172); details: dose <= 10000.0 nM
Description: Inhibition of muscarinic M2 receptor (unknown origin) upto 10000 nM

[35] = target: Substance-P receptor (Homo sapiens) (UniProt P25103); details: dose <= 10000.0 nM
Description: Inhibition of tachykinin NK1 receptor (unknown origin) upto 10000 nM

[36] = target: Vasopressin V1a receptor (Homo sapiens) (UniProt P37288); details: dose <= 10000.0 nM
Description: Inhibition of V1A receptor (unknown origin) upto 10000 nM

[37] = target: GABA-A receptor; anion channel (Homo sapiens) (UniProt P14867+P47870+P18507+P28472+P48169+Q99928+Q9UN88+P34903+O00591+O14764+Q8N1C3+P18505+P78334+P47869+P31644+Q16445); details: dose <= 10000.0 nM
Description: Inhibition of GABAA receptor (unknown origin) upto 10000 nM

[38] = target: Potassium voltage-gated channel subfamily A member 5 (Homo sapiens) (UniProt P22460); details: dose <= 10000.0 nM
Description: Inhibition of Kv1.5 channel (unknown origin) upto 10000 nM

[39] = target: Phosphatidylinositol 4,5-bisphosphate 3-kinase catalytic subunit gamma isoform (Homo sapiens) (UniProt P48736); details: dose <= 10000.0 nM
Description: Inhibition of PI3K-gamma (unknown origin) upto 10000 nM

[40] = target: Sodium-dependent noradrenaline transporter (Homo sapiens) (UniProt P23975); details: dose <= 10000.0 nM
Description: Inhibition of NET (unknown origin) upto 10000 nM

[41] = target: Sodium-dependent serotonin transporter (Homo sapiens) (UniProt P31645); details: dose <= 10000.0 nM
Description: Inhibition of SERT (unknown origin) upto 10000 nM

Mus musculus [42] = species on record: Mus musculus; assay: animal or person; details: C57BL/6J, Mast cell, po, 1.117 h

Chain of Histamine H1 receptor (Homo sapiens) (P35367 whole entry): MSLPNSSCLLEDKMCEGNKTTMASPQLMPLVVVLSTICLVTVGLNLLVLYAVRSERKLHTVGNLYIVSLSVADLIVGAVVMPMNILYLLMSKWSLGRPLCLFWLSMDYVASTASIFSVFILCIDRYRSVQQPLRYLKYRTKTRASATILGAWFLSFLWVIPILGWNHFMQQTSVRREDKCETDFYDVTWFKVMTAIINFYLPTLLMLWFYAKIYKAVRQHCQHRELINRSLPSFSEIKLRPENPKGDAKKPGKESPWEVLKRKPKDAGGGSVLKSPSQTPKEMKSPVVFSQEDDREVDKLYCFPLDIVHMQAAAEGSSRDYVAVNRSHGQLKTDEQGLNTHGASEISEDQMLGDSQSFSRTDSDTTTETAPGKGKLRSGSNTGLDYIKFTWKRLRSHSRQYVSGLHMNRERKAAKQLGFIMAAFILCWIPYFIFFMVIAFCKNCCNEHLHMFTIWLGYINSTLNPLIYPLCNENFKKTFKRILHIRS
Chain of Prostaglandin-H2 D-isomerase (P41222 whole entry): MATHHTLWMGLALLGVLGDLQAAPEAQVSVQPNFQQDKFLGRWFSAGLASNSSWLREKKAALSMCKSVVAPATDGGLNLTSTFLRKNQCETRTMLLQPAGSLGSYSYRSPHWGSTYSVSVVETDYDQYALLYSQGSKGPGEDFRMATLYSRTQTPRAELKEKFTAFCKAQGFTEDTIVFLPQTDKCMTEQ
Chain of Phosphatidylinositol 4,5-bisphosphate 3-kinase catalytic subunit gamma isoform (Homo sapiens) (P48736 whole entry, looked up, canonical isoform): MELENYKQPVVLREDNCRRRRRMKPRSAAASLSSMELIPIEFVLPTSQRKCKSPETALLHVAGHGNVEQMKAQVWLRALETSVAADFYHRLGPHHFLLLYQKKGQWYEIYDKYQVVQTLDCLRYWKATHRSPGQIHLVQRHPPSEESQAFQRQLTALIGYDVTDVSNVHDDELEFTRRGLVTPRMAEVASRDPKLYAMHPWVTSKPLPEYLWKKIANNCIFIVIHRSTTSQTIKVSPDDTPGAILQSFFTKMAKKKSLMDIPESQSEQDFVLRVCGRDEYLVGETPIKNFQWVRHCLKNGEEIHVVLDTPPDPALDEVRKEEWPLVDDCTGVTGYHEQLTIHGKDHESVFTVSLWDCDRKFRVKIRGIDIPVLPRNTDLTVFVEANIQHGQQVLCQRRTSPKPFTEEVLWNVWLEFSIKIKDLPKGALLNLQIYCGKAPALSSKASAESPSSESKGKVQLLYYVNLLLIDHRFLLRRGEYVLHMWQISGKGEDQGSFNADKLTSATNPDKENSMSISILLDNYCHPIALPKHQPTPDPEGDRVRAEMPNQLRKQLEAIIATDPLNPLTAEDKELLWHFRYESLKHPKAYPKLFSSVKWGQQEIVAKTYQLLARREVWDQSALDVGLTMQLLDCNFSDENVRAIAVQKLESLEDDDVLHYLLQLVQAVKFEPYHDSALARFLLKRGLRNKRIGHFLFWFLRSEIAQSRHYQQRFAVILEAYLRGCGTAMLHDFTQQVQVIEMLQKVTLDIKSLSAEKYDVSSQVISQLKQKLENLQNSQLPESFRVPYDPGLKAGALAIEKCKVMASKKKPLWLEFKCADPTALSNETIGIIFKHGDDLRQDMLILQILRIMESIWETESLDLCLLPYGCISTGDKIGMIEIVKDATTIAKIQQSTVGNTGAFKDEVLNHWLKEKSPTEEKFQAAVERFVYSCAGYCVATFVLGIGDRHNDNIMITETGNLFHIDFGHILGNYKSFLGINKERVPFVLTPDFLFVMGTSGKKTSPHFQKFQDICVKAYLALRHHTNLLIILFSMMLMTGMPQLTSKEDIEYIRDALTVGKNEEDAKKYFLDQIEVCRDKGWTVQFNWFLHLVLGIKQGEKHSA
Chain of Potassium voltage-gated channel subfamily A member 5 (Homo sapiens) (P22460 whole entry, canonical isoform): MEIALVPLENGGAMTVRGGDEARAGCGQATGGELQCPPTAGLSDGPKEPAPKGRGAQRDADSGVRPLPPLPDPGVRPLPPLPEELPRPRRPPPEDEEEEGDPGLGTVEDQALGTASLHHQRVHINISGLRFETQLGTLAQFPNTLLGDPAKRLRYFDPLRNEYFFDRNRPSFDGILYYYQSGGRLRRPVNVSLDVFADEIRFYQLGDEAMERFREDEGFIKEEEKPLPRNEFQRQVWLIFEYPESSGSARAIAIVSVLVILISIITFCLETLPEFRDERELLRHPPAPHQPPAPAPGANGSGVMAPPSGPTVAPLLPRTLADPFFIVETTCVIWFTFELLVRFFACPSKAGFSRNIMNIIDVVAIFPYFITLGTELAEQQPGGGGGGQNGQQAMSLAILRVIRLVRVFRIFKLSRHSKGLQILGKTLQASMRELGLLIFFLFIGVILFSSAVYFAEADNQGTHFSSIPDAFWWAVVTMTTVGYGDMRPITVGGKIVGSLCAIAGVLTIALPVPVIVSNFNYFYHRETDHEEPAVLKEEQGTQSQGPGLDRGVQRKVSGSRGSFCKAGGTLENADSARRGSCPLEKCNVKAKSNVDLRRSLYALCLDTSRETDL
Chain of Substance-P receptor (Homo sapiens) (P25103 whole entry): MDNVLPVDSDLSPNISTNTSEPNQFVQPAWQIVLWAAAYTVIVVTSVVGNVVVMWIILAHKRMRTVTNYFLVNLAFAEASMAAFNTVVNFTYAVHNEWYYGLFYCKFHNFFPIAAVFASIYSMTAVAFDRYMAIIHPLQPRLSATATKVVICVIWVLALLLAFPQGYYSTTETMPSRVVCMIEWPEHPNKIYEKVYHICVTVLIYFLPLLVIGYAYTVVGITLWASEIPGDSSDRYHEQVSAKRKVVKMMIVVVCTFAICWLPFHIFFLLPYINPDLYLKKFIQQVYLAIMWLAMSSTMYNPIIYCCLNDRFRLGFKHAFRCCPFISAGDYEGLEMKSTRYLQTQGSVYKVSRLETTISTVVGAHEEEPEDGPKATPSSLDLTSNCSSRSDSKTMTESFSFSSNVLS
Chain of D(2) dopamine receptor (Homo sapiens) (P14416 whole entry): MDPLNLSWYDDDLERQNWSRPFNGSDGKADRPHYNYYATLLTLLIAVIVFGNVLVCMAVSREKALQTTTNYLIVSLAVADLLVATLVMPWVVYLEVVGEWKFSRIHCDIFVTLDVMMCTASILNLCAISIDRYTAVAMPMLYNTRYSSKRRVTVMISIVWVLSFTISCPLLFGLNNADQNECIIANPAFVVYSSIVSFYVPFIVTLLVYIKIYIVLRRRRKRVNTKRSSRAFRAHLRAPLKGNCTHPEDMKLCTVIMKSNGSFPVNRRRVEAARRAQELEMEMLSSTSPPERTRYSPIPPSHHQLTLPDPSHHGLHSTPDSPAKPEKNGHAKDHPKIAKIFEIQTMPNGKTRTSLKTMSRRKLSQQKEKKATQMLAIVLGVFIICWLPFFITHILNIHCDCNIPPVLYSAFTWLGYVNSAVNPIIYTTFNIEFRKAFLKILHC
Chain of Muscarinic acetylcholine receptor M2 (Homo sapiens) (P08172 whole entry): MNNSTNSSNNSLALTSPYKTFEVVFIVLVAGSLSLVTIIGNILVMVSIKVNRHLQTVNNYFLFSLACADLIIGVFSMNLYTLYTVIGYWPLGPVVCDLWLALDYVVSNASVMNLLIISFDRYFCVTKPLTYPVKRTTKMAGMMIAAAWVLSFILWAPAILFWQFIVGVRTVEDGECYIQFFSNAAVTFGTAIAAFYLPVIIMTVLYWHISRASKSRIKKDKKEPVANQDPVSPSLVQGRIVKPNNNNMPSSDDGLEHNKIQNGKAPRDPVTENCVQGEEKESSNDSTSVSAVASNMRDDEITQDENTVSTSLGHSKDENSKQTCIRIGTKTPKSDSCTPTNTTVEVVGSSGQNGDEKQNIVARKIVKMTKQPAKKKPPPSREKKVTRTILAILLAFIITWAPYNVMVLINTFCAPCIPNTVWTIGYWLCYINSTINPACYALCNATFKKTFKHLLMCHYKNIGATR
Chain of Muscarinic acetylcholine receptor M1 (Homo sapiens) (P11229 whole entry): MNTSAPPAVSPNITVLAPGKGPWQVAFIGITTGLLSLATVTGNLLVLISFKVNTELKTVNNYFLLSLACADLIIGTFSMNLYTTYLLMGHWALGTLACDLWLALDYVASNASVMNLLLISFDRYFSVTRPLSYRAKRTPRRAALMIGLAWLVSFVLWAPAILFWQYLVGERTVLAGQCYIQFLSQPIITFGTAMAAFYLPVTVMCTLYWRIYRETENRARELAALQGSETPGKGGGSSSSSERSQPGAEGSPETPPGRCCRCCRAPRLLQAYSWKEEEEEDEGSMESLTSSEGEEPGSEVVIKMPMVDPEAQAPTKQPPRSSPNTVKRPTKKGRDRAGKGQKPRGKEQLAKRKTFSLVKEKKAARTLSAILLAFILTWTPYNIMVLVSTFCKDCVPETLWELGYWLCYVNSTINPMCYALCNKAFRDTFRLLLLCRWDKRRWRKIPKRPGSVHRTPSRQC
Chain of Amine oxidase [flavin-containing] A (P21397 whole entry): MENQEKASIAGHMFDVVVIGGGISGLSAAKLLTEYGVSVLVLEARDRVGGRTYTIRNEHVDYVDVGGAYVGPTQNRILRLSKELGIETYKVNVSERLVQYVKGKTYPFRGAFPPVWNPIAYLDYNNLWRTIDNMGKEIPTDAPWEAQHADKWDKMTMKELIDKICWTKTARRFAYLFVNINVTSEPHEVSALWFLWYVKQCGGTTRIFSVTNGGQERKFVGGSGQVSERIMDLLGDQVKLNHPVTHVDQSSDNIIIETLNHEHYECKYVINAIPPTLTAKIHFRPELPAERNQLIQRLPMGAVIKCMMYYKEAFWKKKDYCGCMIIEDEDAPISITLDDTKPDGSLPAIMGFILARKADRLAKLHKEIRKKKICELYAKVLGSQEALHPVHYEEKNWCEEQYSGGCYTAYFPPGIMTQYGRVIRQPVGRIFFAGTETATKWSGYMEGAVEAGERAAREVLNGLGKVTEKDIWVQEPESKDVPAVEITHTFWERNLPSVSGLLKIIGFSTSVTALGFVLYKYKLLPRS
Chain of Hematopoietic prostaglandin D synthase (O60760 whole entry): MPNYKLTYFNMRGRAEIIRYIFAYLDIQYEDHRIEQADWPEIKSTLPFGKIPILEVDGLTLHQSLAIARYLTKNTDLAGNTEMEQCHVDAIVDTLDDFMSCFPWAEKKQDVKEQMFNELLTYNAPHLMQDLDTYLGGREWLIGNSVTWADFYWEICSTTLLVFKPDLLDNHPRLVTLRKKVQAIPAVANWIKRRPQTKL

## CC(C)(O)[C@H]1CC[C@H](NC(=O)c2cnc3nc(C4CC4)ccc3c2)CC1
[1]
  half-life: 174 min
[2]
  Vd: 1.6 L/kg
[3]
  half-life: 306 min
[4]
  bioavailability: 100%
[5]
  bioavailability: 92%
[6]
  pKd: 9.62
[7]
  pIC50: < 5.00
[8]
  inhibition (INH): Not Active
[9]
  inhibition (INH): Not Active
[10]
  inhibition (INH): Not Active
[11]
  Cmax: 1700 ng/mL
[12]
  fAUClast: 1200 ng·h/mL
Mus musculus [13]
  Activity: 90%
Mus musculus [14]
  ED50: 1.1 mg/kg
[15]
  Cmax: 260 ng/mL
[16]
  fAUClast: 200 ng·h/mL
[17]
  Activity: Non-Toxic
[18]
  Activity: Non-Toxic
[19]
  Activity: Non-Toxic
[20]
  Activity: Toxic
[21]
  Activity: Toxic
[22]
  Activity: Toxic
[23]
  AUC at 168 h: 120 µg·h/mL
[24]
  AUC at 168 h: 410 µg·h/mL
[25]
  Activity: Toxic
[26]
  Activity: Toxic
[27]
  Activity: Toxic
[28]
  AUC at 96 h: 430 µg·h/mL
[29]
  Cmax: 34000 ng/mL
[30]
  inhibition: inactive
[31]
  inhibition: inactive
[32]
  inhibition: inactive
[33]
  inhibition: inactive
[34]
  inhibition: inactive
[35]
  inhibition: inactive
[36]
  inhibition: inactive
[37]
  inhibition: inactive
[38]
  inhibition: inactive
[39]
  inhibition: inactive
[40]
  inhibition: inactive
[41]
  inhibition: inactive
Mus musculus [42]
  ED50: 9 µg/kg
